Patent publication US20250325491A1, “POLYVALENT MOLECULE BASED LIPID NANOPARTICLES FOR NUCLEIC ACID DELIVERY” (Bio-TRIP B.V., priority 2022, published 2025)
Like-named read-outs stand apart in the source and are kept apart here.

Assays:
[1] = Dynamic light scattering (DLS) of nanoparticles; format: physicochemical; settings: siRNA-aNPs containing the polyvalent material (Table S3); SD over individual repeats
Experimental: The hydrodynamic diameter of the formulated particles was determined by a number-weighted mean diameter provided by dynamic light scattering (DLS) using a Zetasizer Nano ZS in combination with a Malvern Zetasizer NanoSampler (Malvern Instruments, Worcestshire, UK). The size dispersity was measured as the poly dispersity index (PDI). For the DLS measurements, 100 μl of the formulated nanoparticle was diluted into 700 μl of PBS (137 mM NaCl, 2.7 mM KCl, 10 mM Na2HPO4 and 1.8 mM KH2PO4) and equilibrated at room temperature before the analysis. Each sample was measured 5 times, 10 runs of each 10 seconds, at wavelength 633 nm, without fixing the attenuator and measurement position.

[2] = Solubility of the polyvalent molecules in ethanol, iso-propanol and tri-caprylin
Experimental: The solubility can be checked by stirring about 20 mg of the polyvalent molecule in 1 gram of tricaprylin, ethanol or iso-propanol, and assessing whether all material spontaneously dissolves to create a clear/transparent solution (with a concentration of about 2 w/w %). The test can be done at about 20 degrees centigrade (room temperature) or at about 37 degrees centigrade.
Spontaneous dissolution upon stirring at room temperature giving a clear solution is a mark for solubility.

[3] = Cryo-TEM of nanoparticles; format: physicochemical
Experimental: Size and shape of the nanoparticles was also assessed by cryo-transmission electron microscopy (cryo-TEM). The surface of 200-mesh lacey carbon supported copper grids (Electron Microscopy Sciences) was plasma charged for 40 seconds using a carbon coater (Cressington 208). Subsequently, 3 μl of nanoparticle sample (˜1 mg protein/ml) was pipetted on a grid and vitrified into a thin film by plunge vitrification in liquid ethane. This step was performed by using an automated robot (FEI Vitrobot Mark IV). Cryo-TEM imaging was acquired on the cryo-transmission electron microscope TITAN (Thermo Fisher), equipped with a field emission gun (FEG), a post-column Gatan imaging filter (model 2002) and a post-GIF 2 k×2 k Gatan CCD camera (model 794). The imaging was performed at 300 kV acceleration voltage in bright-field TEM mode with zero-loss energy filtering at 24,000× magnification (dose rate of 11.8 e−/Å2·s), and 1s acquisition time. Pictures and results are reported in Table S6, FIG. 7, FIG. 8, FIG. 9 (A), FIG. 15.

RAW 264.7 cell line = assay: MTS cytotoxicity assay; format: cell-based; settings: RAW 264.7 cell line exposed to siRNA-aNPs with increasing amounts of the polyvalent molecule (FIG. 10)
Experimental: MTS assays were carried out on multiple apolipoprotein nanoparticles (aNPs) of the invention. These assays were executed in line with protocols that are known in the art.

[4] = Stability of nanoparticle formulations (phase separation on dialysis or storage); format: physicochemical; design: key to phase separation of siRNA-aNPs (Table S4): *: Indicates phase separation after two days of storage in the refrigerator at 4° C; key to phase separation of siRNA-aNPs (footnote mark, Table S5): *: Indicates phase separation after two days storage in the fridge at 4° C.; **: Indicates phase separation after overnight dialysis; settings: siRNA-aNPs containing the polyvalent material; for phase separation of siRNA-aNPs (footnote mark, Table S5): overnight dialysis or storage at 4° C; for phase separation of siRNA-aNPs (Table S4): storage in the refrigerator at 4° C
[5] = 20 mg material per gram of solvent, spontaneous dissolution upon stirring giving a clear solution

Row | SMILES | DLS Hydrodynamic diameter (number mean) [1] [nm] | DLS PDI [1] | solubility in ethanol, iso-propanol and tri-caprylin [2, 5] | also measured
1 | CCCCCCCCCCC(O)CN(CCCN(CCCCN(CCCN(CC(O)CCCCCCCCCC)CC(O)CCCCCCCCCC)CCCN(CC(O)CCCCCCCCCC)CC(O)CCCCCCCCCC)CCCN(CC(O)CCCCCCCCCC)CC(O)CCCCCCCCCC)CC(O)CCCCCCCCCC (mixture of isomers) [Example G2, G1-EPX-nC10-8] | 55 ± 4 | 0.10 ± 0.01 | soluble in all three solvents at room temperature | –
2 | CCCCCCCCC(O)CN(CCCN(CC(O)CCCCCCCC)CC(O)CCCCCCCC)CCCN(CC(O)CCCCCCCC)CC(O)CCCCCCCC (mixture of isomers) [Example G7, Bis(3-aminopropyl)amine-EPX-C8-5] | 54 ± 1 | 0.2 ± 0.06 | soluble in all three solvents at room temperature | –
3 | CCCCCCCCC(O)CN(CCN(CC(O)CCCCCCCC)CC(O)CCCCCCCC)CCN(CC(O)CCCCCCCC)CC(O)CCCCCCCC (mixture of isomers) [Example G8, Bis(2-amino-ethyl)amine-EPX-C8-5] | 84 ± 45 | 0.2 ± 0.05 | soluble in all three solvents at room temperature | –
4 | CCCCCCCCC(O)CN(CCCN(C)CCCN(CC(O)CCCCCCCC)CC(O)CCCCCCCC)CC(O)CCCCCCCC (mixture of isomers) [Example G9, Bis(3-aminopropyl)methylamine-EPX-C8-4] | 73 ± 10 | 0.18 ± 0.08 | – | –
5 | CCCCCCCCCCCCCCOC(=O)CCN(CCCN(CCCCN(CCCN(CCC(=O)OCCCCCCCCCCCCCC)CCC(=O)OCCCCCCCCCCCCCC)CCCN(CCC(=O)OCCCCCCCCCCCCCC)CCC(=O)OCCCCCCCCCCCCCC)CCCN(CCC(=O)OCCCCCCCCCCCCCC)CCC(=O)OCCCCCCCCCCCCCC)CCC(=O)OCCCCCCCCCCCCCC [Example A3, G1-ACR-nC14-8] | 55 ± 0.7 | 0.14 ± 0.01 | – | –
6 | CC(C)CCCCCCCOC(=O)CCN(CCCN(CCCCN(CCCN(CCC(=O)OCCCCCCCC(C)C)CCC(=O)OCCCCCCCC(C)C)CCCN(CCC(=O)OCCCCCCCC(C)C)CCC(=O)OCCCCCCCC(C)C)CCCN(CCC(=O)OCCCCCCCC(C)C)CCC(=O)OCCCCCCCC(C)C)CCC(=O)OCCCCCCCC(C)C [Example A6, G1-ACR-isoC10-8] | 48 ± 1 | 0.14 ± 0.02 | – | diameter of siRNA-aNPs visible in cryo-TEM and immuno-gold staining TEM images ([3]; siRNA-aNPs containing A6 (FIG. 9)): about 50 nm; Cryo-TEM Diameter ([3]; siRNA-aNPs containing the polyvalent material, SD over n individual particles): 53 ± 11 nm; Cryo-TEM PDI ([3]; siRNA-aNPs containing the polyvalent material, n individual particles): 0.02; cytotoxicity (MTS assay) (RAW 264.7 cell line): do not exercise cytotoxicity
7 | CCCCCCCCOC(=O)CCN(CCCN(CCC(=O)OCCCCCCCC)CCC(=O)OCCCCCCCC)CCCN(CCC(=O)OCCCCCCCC)CCC(=O)OCCCCCCCC [Example A9, Bis(3-Aminopropyl)Amine-ACR-C8-5] | – | – | soluble in all three solvents at room temperature | –
8 | CCCCCCCCOC(=O)CCN(CCC(=O)OCCCCCCCC)CCN(CCC(=O)OCCCCCCCC)CCN(CCC(=O)OCCCCCCCC)CCC(=O)OCCCCCCCC [Example A10, Bis(2-aminoethyl)amine-ACR-C8-5] | – | – | – | solubility in ethanol, iso-propanol and tri-caprylin [2]: soluble in all three solvents at room temperature
9 | CCCCCCCCOC(=O)CCN(CCCN(C)CCCN(CCC(=O)OCCCCCCCC)CCC(=O)OCCCCCCCC)CCC(=O)OCCCCCCCC [Example A11, Bis-(3-aminopropyl)methylamine-ACR-C8-4] | 136 ± 45 | 0.14 ± 0.04 | soluble in all three solvents at room temperature | –
10 | CCCCCCCCCCCCCCOC(=O)CCN(CCCN(CCCCN(CCCN(CCC(=O)OCCCCCCCCCCCCCC)C(C)=O)CCCN(CCC(=O)OCCCCCCCCCCCCCC)C(C)=O)CCCN(CCC(=O)OCCCCCCCCCCCCCC)C(C)=O)C(C)=O [Example B2, G1-ACR-nC14-4/Ac-4] | 67 | 0.09 | soluble in all three solvents at room temperature | phase separation of siRNA-aNPs (footnote mark, Table S5) [4]: B2 *; phase separation of siRNA-aNPs (Table S4) [4]: B2 *
11 | CCCCCCCCCCCCCCOC(=O)CCN(C)CCCN(CCCCN(CCCN(C)CCC(=O)OCCCCCCCCCCCCCC)CCCN(C)CCC(=O)OCCCCCCCCCCCCCC)CCCN(C)CCC(=O)OCCCCCCCCCCCCCC [Example H1, G1-ACR-nC14-4/CH3-4] | 66 ± 7 | 0.45 ± 0.43 | – | phase separation of siRNA-aNPs (footnote mark, Table S5) [4]: H1 *; phase separation of siRNA-aNPs (Table S4) [4]: H1 *
12 | CCCCCCCCC=CCCCCCCCC(=O)NCCCCC(N)C(=O)NCCCN(CCCCN(CCCNC(=O)C(N)CCCCNC(=O)CCCCCCCC=CCCCCCCCC)CCCNC(=O)C(N)CCCCNC(=O)CCCCCCCC=CCCCCCCCC)CCCNC(=O)C(N)CCCCNC(=O)CCCCCCCC=CCCCCCCCC (centres unmarked) [Example J10, G1-Lysine-N^6-Oleate-4] | – | – | soluble in all three solvents at room temperature | –
13 | CCCCCCCCC=CCCCCCCCC(=O)NC(CCCNC(=N)N)C(=O)NCCCN(CCCCN(CCCNC(=O)C(CCCNC(=N)N)NC(=O)CCCCCCCC=CCCCCCCCC)CCCNC(=O)C(CCCNC(=N)N)NC(=O)CCCCCCCC=CCCCCCCCC)CCCNC(=O)C(CCCNC(=N)N)NC(=O)CCCCCCCC=CCCCCCCCC (centres unmarked) [Example J11, G1-Arginine-Oleate-4] | – | – | soluble in all three solvents at room temperature | –
